How the values were obtained:
[1] = for EPR signal of blood following treatment with ferricyanide: rat blood from catheter after dynamic EPR spectra
[2] = system: isolated rabbit heart mitochondria; assay: In vitro localization in isolated mitochondria, MRI T1 analysis; settings: for T1 / enhancement of treated mitochondria (uptake): 10 uM, 37° C. 10 minutes, 3.0 T, compared to mitochondria alone
Protocol: The experiment was carried out on a Signa 3.0 T GE scanner (GE, Waukesha, Wis.) using a custom quadrature rf coil with a G10 fiberglass vial rack. Rabbit heart mitochondria were isolated. For verification of MR detectable mitochondrial accumulation of Mito-CP, isolated rabbit mitochondria were separated into […] eppendorf tubes each containing 40 μL of 15 mg/ml mitochondria. Six eppendorf tubes were prepared as indicated in Table 1 below (1-6), and three additional eppendorf tubes were prepared from the supernatant of tubes 4-6 (4b-6b): Note that succinate is needed to activate the mitochondrial respiratory chain, necessary for normal function. All tubes were incubated at 37° C. for 10 minutes. Immediately following incubation, all tubes were centrifuged at 1,000×g for 4 minutes at 4° C. The supernatant was then transferred into another eppendorf tube. The mitochondria in tubes 4-6 were re-suspended with the addition of […] of DPBS and allowed to settle naturally. […] To determine the specificity that Mito-CP has toward mitochondria, the compound carboxy-proxyl (CP) was used for comparison. CP is a 5-member nitroxide ring, depicted in FIG. 1, without the ten chain linking carbons and the triphenylphosphonium. […] These properties make CP an ideal control for specificity of Mito-CP toward mitochondria.

[3] = system: non-tumorigenic MCF10-A breast epithelial cells; assay: MTT cell viability assay; format: cell-based; settings: normal MCF10-A, 1-30 uM, 48 h
Protocol: (§1) Cell Culture. MCF7, MDA-MB-231 and MCF10-A cells were obtained from the American Type Culture Collection (ATCC) and cultured at 37° C. in humidified 95% air/5% CO2. MCF7 cells were maintained in MEM-alpha medium containing 10% FBS, L-glutamine (4 mM), penicillin (100 μg/ml), streptomycin (100 μg/ml), non-essential amino acids and sodium pyruvate. MDA-MB-23 were grown in Dulbecco's Modified Eagle's medium (DMEM) containing 10% FBS, L-glutamine (4 mM), penicillin (100 μg/ml), and streptomycin (100 μg/ml). MCF10-A cells were maintained in F-12 media supplemented with 20% FHS, hydrocortisone, cholera toxin, penicillin, streptomycin, and endothelial cell growth factor (ECGF). Typically, the day of the treatment, various concentrations of the nitroxides were added to the cells directly in the media.
(§2) The MTT assay (Sigma-Aldrich, Milwaukee, Wis.) was used to measure cell survival using quantitative colorimetry (λ=570 nm). This assay is based on the capacity of mitochondrial dehydrogenases to reduce MTT to form the insoluble formazan product. Cells were plated in 12-well plates and treated at pre-confluency with Mito-CP and CP (0-30 μM) in their respective media for 48 h. The culture media was removed after treatment, washed gently with DPBS and MTT (5 mg/ml in media) was added to each well, following incubation of the plates for 1 h at 37° C. The MTT solution was removed and the formazan product in each well was dissolved with dimethyl sulfoxide (DMSO). The optical density of each well was measured using an Agilent 8453 UV-Vis spectrometer at 570 nm.
(§3) MCF7, MDA-MB-231 and non-tumorigenic MCF10-A were grown to pre-confluency and treated with either Mito-CP or parent compound CP (1-30 uM) for 48 h and cell viability was measured using the MTT assay.

MCF7 cells = assay: MTT cell viability assay; format: cell-based; settings: MCF7, 1-30 uM, 48 h
Protocol: as §1, §2, §3

MDA-MB-231 cells = assay: MTT cell viability assay; format: cell-based; settings: MDA-MB-231, 1-30 uM, 48 h
Protocol: as §1, §2, §3

[4] = cited from earlier work
[5] = T1 (longitudinal) relaxivity in buffered saline by spin echo inversion recovery MRI; format: physicochemical; settings: buffered saline (DPBS)
Protocol: T1 Relaxivity at 1.5 Tesla. The longitudinal relaxivities of CP and Mito-CP were determined using a LX 1.5 T GE Scanner (GE, Waukesha, Wis.) using an 8-channel head rf coil. Solutions of CP and Mito-CP were diluted with Dulbecco's Phosphate Buffered Saline (DPBS) to the following concentrations: 5.0 μM, 10.0 μM, 20.0 μM, 50.0 μM, 100.0 μM, 200.0 μM, 300.0 μM, 500.0 μM, 700.0 μM, 1.0 mM, 2.0 mM, 5.0 mM, 10.0 mM, and 20.0 mM. Longitudinal relaxation times (T1) for each solution and relaxivities (R1) for CP and Mito-CP were calculated using images from a standard spin echo sequence (TE=14 msec, TR=10 sec) at various inversion times (TI=50, 125 msec incrementing by 125 msec to 3500 msec and 4000 msec).
T1 Relaxivity at 3.0 Tesla. The longitudinal relaxivities of CP and Mito-CP were determined using a Signa 3.0 T GE Scanner (GE, Waukesha, Wis.) using a custom rf quadrature coil. Solutions of CP and Mito-CP were diluted with Dulbecco's Phosphate Buffered Saline (DPBS) to the following concentrations: 1.0 μM, 10.0 μM, 100.0 μM, 1.0 mM, 10.0 mM, and 20.0 mM. Longitudinal relaxation times (T1) for each solution and relaxivities (R1) for CP and Mito-CP were calculated using images from a standard spin echo sequence (TE=9 msec, TR=15 sec) at various inversion times (TI=100 msec incrementing by 100 msec to 4000 msec and 50, 150, 1050, 1150 msec).
T1 Relaxivity at 9.4 Tesla. Both solutions were diluted with Dulbecco's Phosphate Buffered Saline (DPBS) to the following concentrations: […], 1.0 mM, 10.0 mM, and 20.0 mM. Longitudinal relaxation times (T1) for each solution and relaxivities (R1) for CP and Mito-CP were calculated using a standard spin echo sequence (TE=9 msec, TR=15,000 msec) at various inversion times (TI=100 msec incrementing by 100 msec to 4000 msec and 50, 150, 1050, 1150 msec).
The longitudinal relaxivities of other nitroxides have been approximate […]. In order to assess the longitudinal relaxivity of CP and Mito-CP, concentrations were prepared with the expectation of this relaxivity. Two separate initial solutions of CP and Mito-CP were prepared. Longitudinal relaxivities were determined for both CP and Mito-CP at three field strengths. Relaxivities were obtained from non-linear fits of standard spin echo inversion recovery images calculated using Matlab.

Molecule	EPR signal of blood following treatment with ferricyanide [1]	T1 / enhancement of treated mitochondria (uptake) [2]	induction of apoptosis / cell viability (MTT) [3]	induction of cancer cell apoptosis / cell viability (MTT) (MCF7 cells)	induction of cancer cell apoptosis / cell viability (MTT) (MDA-MB-231 cells)	permeability to lipid membranes [4]	longitudinal relaxivity R1 ([5]; 3.0 T)	time to elimination/reduction from the blood ([1]; rat, following bolus injection)	in vivo half-life in blood ([1]; single rat, tail-vein bolus, monoexponential fit after peak)	increase in concentration within the mitochondria compared to the incubating solution ([2]; 10 uM incubating solution)	estimated mitochondrial associated tissue concentration ([2]; 10 uM incubating solution, calculated from relaxivity and T1)	longitudinal relaxivity R1 ([5]; 1.5 T)	longitudinal relaxivity R1 ([5]; 9.4 T)
CC1(C)CC(C(=O)O)C(C)(C)N1[O] (stereo not shown) [CP, carboxy-proxyl, reference compound]	not back to its initial level	did not enhance considerably	no influence inducing apoptosis	did not	did not	impermeable to lipid membranes	0.1546 ± 0.00567 mM⁻¹ s⁻¹	–	–	–	–	–	–
(11-(3-carboxy-2,2,5,5-tetramethyl-1-pyrrolidinyloxy)-undecyl)-triphenylphosphonium bromide [Mito-CP]	signal was recovered	shortened T1, indicating uptake	no influence inducing apoptosis	induced cancer cell apoptosis	induced cancer cell apoptosis	–	0.2322 ± 0.0151 mM⁻¹ s⁻¹	≤ 30 min	approximately 2 minutes	≥ 140 fold	0.143 mM	0.1643 ± 0.01314 mM⁻¹ s⁻¹	0.2083 ± 0.0431 mM⁻¹ s⁻¹
